Where two headings read alike, the source gives them in different places. Square brackets hold non-standard residues; d marks the D form. Peptide text beside a SMILES is read from it. Dmt = Cc1cc(O)cc(C)c1C[C@H](N)C(=O)O; Tle = CC(C)(C)[C@H](N)C(=O)O
Conditions: CE-UV 200 nm; for BenchTop Obtained Concentration, Mean ± SD / BenchTop Obtained Concentration, %: after 6 h at room temperature; for BenchTop Obtained Concentration, Mean ± SD: ACN/0.1% TFA extraction; for BenchTop Obtained Concentration, Mean ± SD / Freeze and Thaw Obtained Concentration, Mean ± SD / Short Term Obtained Concentration, Mean ± SD: mean ± SD for five replicates; for BenchTop Obtained Concentration, % / Freeze and Thaw Obtained Concentration, % / Short Term Obtained Concentration, %: % of spiked concentration, five replicates; for Freeze and Thaw Obtained Concentration, % / Freeze and Thaw Obtained Concentration, Mean ± SD: after three freeze and thaw cycles at −20 °C; for Short Term Obtained Concentration, % / Short Term Obtained Concentration, Mean ± SD: at −25 °C for 30 days
Protocol: To ensure the applicability of the method for bioanalytical studies, stability tests were conducted under various storage and handling conditions.
The stock solutions of PK20 and [Ile9]PK20 compounds at a concentration of 10,000 ng/mL were prepared by dissolving the appropriate amounts of the substances in a 25 mM phosphate buffer at pH 2.5. Calibration solutions at specific concentrations were prepared on their basis. All solutions were stored at −15 °C. […] Calibration solutions at concentrations of 10, 50, 100, 500, 1000, and 5000 ng/mL were prepared in both water and serum by adding appropriate volumes of the stock solutions to serum samples free of the tested analytes.
To a 100 µL serum sample, 200 µL of acetonitrile (ACN) containing 0.1% trifluoroacetic acid (TFA) was added then immediately mixed by vortexing and centrifuged at 20,000× g for 4 min. The resulting supernatant was filtered using an ultrafiltration centrifuge (MWCO 30,000; Microcon YM-30, Millipore Corporation, Bradford, MA, USA) and then lyophilized. The dry residue was dissolved in 100 µL of deionized water and introduced into the capillary. The extraction procedure for PK20 and [Ile9]PK20 compounds was performed for three concentration ranges, namely 20 ng/mL, 500 ng/mL, and 5000 ng/mL.
Samples were introduced into the system hydrodynamically at a pressure of 2 psi for 6 s. Electrophoresis was performed at a voltage of 10 kV (normal polarity, anode on the inlet side of the capillary) at a temperature of 25 °C. Between subsequent analyses, the capillary was rinsed with water for 2 min and with BGE for 3 min. After each series of analyses, the working buffer was replaced to ensure repeatable separations.

## Cc1cc(O)cc(C)c1C[C@H](N)C(=O)N[C@H](CCCCN)C(=O)N[C@@H](Cc1ccccc1)C(=O)N[C@@H](Cc1ccccc1)C(=O)N[C@@H](CCCCN)C(=O)N[C@@H](CCCCN)C(=O)N1CCC[C@H]1C(=O)N[C@@H](Cc1ccccc1)C(=O)N[C@H](C(=O)N[C@@H](CC(C)C)C(=O)O)C(C)(C)C [PK20, H-Dmt-D-Lys-Phe-Phe-Lys-Lys-Pro-Phe-Tle-Leu-OH] (H-[Dmt][dK]FFKKPF[Tle]L-OH)
Spiked 50 ng/mL in serum
  BenchTop Obtained Concentration, Mean ± SD: 23.92 ± 1.2 ng/mL
  BenchTop Obtained Concentration, %: 47.84%
  Freeze and Thaw Obtained Concentration, %: 24.10%
  Freeze and Thaw Obtained Concentration, Mean ± SD: 12.05 ± 1.5 ng/mL
  Short Term Obtained Concentration, %: 95.04%
  Short Term Obtained Concentration, Mean ± SD: 47.52 ± 1.4 ng/mL
Spiked 500 ng/mL in serum
  BenchTop Obtained Concentration, Mean ± SD: 240.53 ± 0.9 ng/mL
  BenchTop Obtained Concentration, %: 48.11%
  Freeze and Thaw Obtained Concentration, %: 25.24%
  Freeze and Thaw Obtained Concentration, Mean ± SD: 126.20 ± 0.7 ng/mL
  Short Term Obtained Concentration, %: 99.12%
  Short Term Obtained Concentration, Mean ± SD: 495.58 ± 1.1 ng/mL

## CC[C@H](C)[C@H](NC(=O)[C@H](Cc1ccccc1)NC(=O)[C@@H]1CCCN1C(=O)[C@H](CCCCN)NC(=O)[C@H](CCCCN)NC(=O)[C@H](Cc1ccccc1)NC(=O)[C@H](Cc1ccccc1)NC(=O)[C@@H](CCCCN)NC(=O)[C@@H](N)Cc1c(C)cc(O)cc1C)C(=O)N[C@@H](CC(C)C)C(=O)O [[Ile9]PK20, H-Dmt-D-Lys-Phe-Phe-Lys-Lys-Pro-Phe-Ile-Leu-OH] (H-[Dmt][dK]FFKKPFIL-OH)
Spiked 50 ng/mL in serum
  BenchTop Obtained Concentration, Mean ± SD: 24.46 ± 1.1 ng/mL
  BenchTop Obtained Concentration, %: 48.92%
  Freeze and Thaw Obtained Concentration, %: 25.44%
  Freeze and Thaw Obtained Concentration, Mean ± SD: 12.72 ± 1.4 ng/mL
  Short Term Obtained Concentration, %: 97.70%
  Short Term Obtained Concentration, Mean ± SD: 48.85 ± 1.2 ng/mL
Spiked 500 ng/mL in serum
  BenchTop Obtained Concentration, Mean ± SD: 246.15 ± 1.0 ng/mL
  BenchTop Obtained Concentration, %: 49.23%
  Freeze and Thaw Obtained Concentration, %: 25.51%
  Freeze and Thaw Obtained Concentration, Mean ± SD: 127.53 ± 1.2 ng/mL
  Short Term Obtained Concentration, %: 99.56%
  Short Term Obtained Concentration, Mean ± SD: 497.80 ± 1.1 ng/mL
